Experimental findings from ChEMBL document CHEMBL3039007, “Structure-based identification of OATP1B1/3 inhibitors” (Mol Pharmacol, 2013) are described below.

Data set [1] deals with T1, Solute carrier organic anion transporter family member 1B1 (Homo sapiens, UniProt Q9Y6L6).
T1 sequence (Q9Y6L6 whole entry): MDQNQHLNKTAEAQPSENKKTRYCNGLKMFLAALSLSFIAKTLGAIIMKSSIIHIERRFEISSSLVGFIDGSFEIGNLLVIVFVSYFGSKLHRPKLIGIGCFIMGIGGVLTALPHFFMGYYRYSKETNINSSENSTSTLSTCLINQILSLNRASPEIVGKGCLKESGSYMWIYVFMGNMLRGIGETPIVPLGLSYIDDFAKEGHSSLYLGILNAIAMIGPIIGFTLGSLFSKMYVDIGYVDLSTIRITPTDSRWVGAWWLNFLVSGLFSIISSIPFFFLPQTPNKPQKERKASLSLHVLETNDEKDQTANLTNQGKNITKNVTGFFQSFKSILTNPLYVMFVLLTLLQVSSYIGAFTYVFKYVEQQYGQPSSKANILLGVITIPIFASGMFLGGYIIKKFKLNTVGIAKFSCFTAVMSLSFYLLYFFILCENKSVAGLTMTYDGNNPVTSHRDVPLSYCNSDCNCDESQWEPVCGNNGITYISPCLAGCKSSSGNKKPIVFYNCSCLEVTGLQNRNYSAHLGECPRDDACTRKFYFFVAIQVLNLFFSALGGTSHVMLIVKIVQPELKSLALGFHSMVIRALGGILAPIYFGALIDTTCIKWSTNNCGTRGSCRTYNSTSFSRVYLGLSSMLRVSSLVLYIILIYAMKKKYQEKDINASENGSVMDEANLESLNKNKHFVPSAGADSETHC
To be noted: chinese hamster, cho, 10 µM.

For data set [2], the target named is T2, Solute carrier organic anion transporter family member 1B3 (Homo sapiens, UniProt Q9NPD5).
T2 sequence (Q9NPD5 whole entry): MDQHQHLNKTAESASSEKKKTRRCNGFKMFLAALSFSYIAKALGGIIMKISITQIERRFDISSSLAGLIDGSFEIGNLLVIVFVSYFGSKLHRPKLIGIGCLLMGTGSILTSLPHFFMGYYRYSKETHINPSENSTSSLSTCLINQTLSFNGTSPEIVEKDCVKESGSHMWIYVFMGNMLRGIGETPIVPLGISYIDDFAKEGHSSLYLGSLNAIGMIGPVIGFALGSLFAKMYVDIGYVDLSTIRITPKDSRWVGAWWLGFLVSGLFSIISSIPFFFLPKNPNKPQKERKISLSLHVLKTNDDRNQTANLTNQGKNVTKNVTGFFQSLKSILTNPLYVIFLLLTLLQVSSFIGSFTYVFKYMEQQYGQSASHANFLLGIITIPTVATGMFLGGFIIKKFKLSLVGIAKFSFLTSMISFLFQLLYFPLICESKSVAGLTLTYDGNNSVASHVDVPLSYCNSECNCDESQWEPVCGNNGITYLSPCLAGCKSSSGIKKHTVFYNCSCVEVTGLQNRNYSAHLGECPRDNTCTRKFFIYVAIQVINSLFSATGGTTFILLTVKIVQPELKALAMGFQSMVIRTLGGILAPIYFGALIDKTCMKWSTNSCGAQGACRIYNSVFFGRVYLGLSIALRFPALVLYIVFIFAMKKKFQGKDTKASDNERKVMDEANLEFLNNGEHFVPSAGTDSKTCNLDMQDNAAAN
To be noted: chinese hamster, cho, 10 µM.

One may read the residual activity as the signal under treatment as a percentage of the control signal. In the case of `C=C1[C@H]2CC[C@@]3(C)[C@H](c4ccoc4)OC(=O)C[C@]13O[C@H]1C[C@H](O)C(C)(C)[C@H](CC(=O)OC)[C@]12C` [3-DEOXY-3beta-HYDROXYANGOLENSIC ACID METHYL ESTER], the residual activity came to 50.95% in data set [1] and 59.13% in data set [2].
Consider `COc1ccc2c(c1)OC[C@@H](Cc1ccc(OC)c(OC)c1)[C@@H]2O` [3-DESHYDROXYSAPPANOL TRIMETHYL ETHER], for which the values for the residual activity in data set [1] and in data set [2] were 100.6% and 104.1%, respectively.
Consider `COc1ccc(-c2oc3ccccc3c(=O)c2O)cc1OC` [3-HYDROXY-3',4'-DIMETHOXYFLAVONE], for which the values for the residual activity in data set [1] and in data set [2] were 119.6% and 106.3%, respectively.
`O=c1oc2ccccc2cc1O` [3-HYDROXYCOUMARIN]: the residual activity in data set [1] was 126.8%; in data set [2] it was 116.7%.
As to `COc1cccc(O)c1O` [3-METHOXYCATECHOL], the residual activity is 98.75% in data set [1] and 107.5% in data set [2].
`Cc1ccc2cc3c(ccc4ccccc43)c3c2c1CC3` [3-METHYLCHOLANTHRENE]: the values for the residual activity in data set [1] and in data set [2] were 86.73% and 78.58%, respectively.
Take `Cc1cc(O)c(C)c(O)c1C(=O)O` [3-METHYLORSELLINIC ACID]: the residual activity in data set [1] amounted to 116.2%; in data set [2], 114.8%.
The corresponding values for `Cn1c(=O)[nH]c(=O)c2[nH]cnc21` [3-METHYLXANTHINE] are 101.5% and 95.53%.
On to `CC1(C)CC23C(=O)CCC(O)C2(C)CCC13` (stereo not given) [3-NOR-3-OXOPANASINSAN-6-OL], for which the values for the residual activity in data set [1] and in data set [2] were 100.8% and 112.2%, respectively.
For `C[C@@H]1CC[C@@]23CCC4(C)[C@@](C=CC5[C@@]6(C)CCC(=O)C(C)(C)C6CC[C@]54C)(OC2=O)C3[C@H]1C` (stereo not given in full) [3-OXOURSAN (28-13)OLIDE], the residual activity in data set [1] is on record as 105.6%; in data set [2] it was 96.4%.
The like results for `CC1/C(=N/O)C[C@@H]2C[C@H]1C2(C)C` (stereo not given in full) [3-PINANONE OXIME] were, in that order, 95.73% and 123%.
As to `CC(=O)c1ccc(O)c(CC=C(C)C)c1` [3-PRENYL-4-HYDROXYACETOPHENONE], the figures for the residual activity in data set [1] and in data set [2] were 93.69% and 99.32%, respectively.
For `C[C@]12CC[C@@H](O)C[C@H]1CCc1ccccc12` [3alpha-HYDROXY-4,4-BISNOR-8,11,13-PODOCARPATRIENE], the values for the residual activity in data set [1] and in data set [2] were 77.88% and 100.9%, respectively.
Regarding `CC(=O)O[C@H]1CC[C@]2(C)C(C[C@H](OC(C)=O)[C@]3(C)C4=CC(=O)OC(c5ccoc5)[C@@]4(C)CCC23)C1(C)C` (stereo partly drawn) [3beta,7beta-DIACETOXYDEOXODEACETOXYDEOXYDIHYDROGEDUNIN], the residual activity in data set [1] is on record as 51.92%; in data set [2] it was 67.84%.
In the case of `CC(=O)O[C@H]1CC[C@]2(C)C3=CC(=O)[C@@]4(C)C(C[C@@H]5OC6(OCC(C)CC6Br)[C@@H](C)[C@@H]54)C3CC[C@H]2C1` (stereo partly drawn) [3beta-ACETOXY-23-BROMO-ISOALLOSPIROST-9 (11)-ENE-12-ONE], the residual activity in data set [1] is 102.6%; in data set [2], 96.22%.
The like results for `COc1cc([C@@H]2c3cc4c(cc3[C@@H](O)[C@H]3COC(=O)[C@H]23)OCO4)cc(OC)c1O` [4'-DEMETHYLEPIPODOPHYLLOTOXIN] were, in that order, 42.52% and 69.62%.
The like results for `O=C(/C=C/c1ccccc1)c1ccc(O)cc1` [4'-HYDROXYCHALCONE] were, in that order, 132.2% and 130.5%.
As to `COc1ccc(C(=O)/C=C/c2ccccc2)cc1` [4'-METHOXYCHALCONE], the residual activity in data set [1] is reported as 100.4%; in data set [2], 93.51%.
On to `C=CC(C1=CC(=O)C(OC)=CC1=O)c1ccc(OC)cc1` (stereo not given) [4,4'-DIMETHOXYDALBERGIONE], for which the residual activity came to 116.4% in data set [1] and 101.4% in data set [2].
In the case of `COc1ccc(-c2cc(=O)c3ccc(OC)cc3o2)cc1` [4,7-DIMETHOXYFLAVONE], the residual activity in data set [1] stood at 91.89%; in data set [2] it was 87.07%.
With `CC(=O)Oc1ccc(O)cc1` [4-ACETOXYPHENOL], the figures for the residual activity in data set [1] and in data set [2] were 136.7% and 116.4%, respectively.
For `NCC(CC(=O)O)c1ccc(Cl)s1` (stereo not given) [4-AMINO-3- (5-CHLOROTHIEN-2-YL)BUTANOIC ACID], the values for the residual activity in data set [1] and in data set [2] were 116.9% and 99.7%, respectively.
As for `Cl.NCCc1ccc(S(=O)(=O)F)cc1` [4-AMINOETHYLBENZENESULFONYL FLUORIDE HYDROCHLORIDE], the residual activity in data set [1] is recorded as 71.73%; in data set [2], 100%.
For the compound `C=CC(C1=CC(=O)C(OC)=CC1=O)c1ccccc1` (stereo not given) [4-METHOXYDALBERGIONE], the residual activity in data set [1] amounted to 77.75%; in data set [2], 139.3%.
On to `Cc1cc(=O)oc2c(O)c(O)ccc12` [4-METHYLDAPHNETIN], for which the residual activity in data set [1] is recorded as 61.23%; in data set [2], 78.2%.
Consider `Cc1cc(=O)oc2cc(O)c(O)cc12` [4-METHYLESCULETIN], for which the residual activity in data set [1] is listed as 121.7%; in data set [2], 110.1%.
For the compound `CCCCCCCCCc1ccc(O)cc1` [4-NONYLPHENOL], the residual activity in data set [1] is given as 140.8%; in data set [2], 184.2%.
As for `Cc1cc(=O)oc2cc(O)cc(O)c12` [5,7-DIHYDROXY-4-METHYLCOUMARIN], the residual activity in data set [1] came out at 79.94%; in data set [2] it was 106.7%.
In the case of `O=c1c(-c2ccccc2)coc2cc(O)cc(O)c12` [5,7-DIHYDROXYISOFLAVONE], the values for the residual activity in data set [1] and in data set [2] were 54.1% and 75.57%, respectively.
For the compound `COc1cc(OC)c2c(=O)c(-c3ccccc3)coc2c1` [5,7-DIMETHOXYISOFLAVONE], the residual activity in data set [1] is 99.46%; in data set [2] it was 104.7%.
Turning to `Cl.NCCCCC(=O)O` [5-AMINOPENTANOIC ACID HYDROCHLORIDE], the results for the residual activity in data set [1] and in data set [2] were 59.53% and 62.53%, respectively.
On to `O=C(O)c1cc2cc(Cl)ccc2[nH]1` [5-CHLOROINDOLE-2-CARBOXYLIC ACID], for which the residual activity in data set [1] was found to be 75.02%; in data set [2] it was 91.36%.
On to `O=C(O)c1cc2cc(F)ccc2[nH]1` [5-FLUOROINDOLE-2-CARBOXYLIC ACID], for which the residual activity is listed as 108.9% in data set [1] and 103.9% in data set [2].
With `COc1cc(O)c2c(=O)c(-c3ccccc3)coc2c1` [5-HYDROXY-7-METHOXYISOFLAVONE], the residual activity in data set [1] stood at 99.72%; in data set [2] it was 104.3%.
Consider `C=C1CCC2C(CC2(C)C)C(=C)CC/C1=N/O` (stereo not given) [5-HYDROXYIMINOISOCARYOPHYLLENE], for which the figures for the residual activity in data set [1] and in data set [2] were 84.7% and 80.99%, respectively.
`COc1ccc2[nH]cc(CCN)c2c1` [5-METHOXYTRYPTAMINE]: the residual activity came to 59.83% in data set [1] and 73.24% in data set [2].
On to `O=C(O)c1cc([N+](=O)[O-])ccc1NCCCc1ccccc1` [5-NITRO-2-PHENYLPROPYLAMINOBENZOIC ACID [NPPB]], for which the values for the residual activity in data set [1] and in data set [2] were 40.14% and 33.43%, respectively.
The like results for `COc1ccc2c(c1)[C@@]1(C)CCC(=O)C[C@@H]1CC2` [5alpha-12-METHOXY-4,4-BISNOR-8,11,13-PODOCARPATRIEN-3-ONE] were, in that order, 131.2% and 89.3%.
The corresponding values for `CC(C)CCC[C@@H](C)[C@H]1CC[C@H]2[C@@H]3CC(=O)[C@H]4C[C@@H](O)CC[C@]4(C)[C@H]3CC[C@]12C` [5alpha-CHOLESTAN-3beta-OL-6-ONE] are 101.9% and 105.8%.
Take `COc1cccc(-c2cc(=O)c3cc(OC)ccc3o2)c1` [6,3'-DIMETHOXYFLAVONE]: the results for the residual activity in data set [1] and in data set [2] were 131.7% and 120.4%, respectively.
